Assay results published in patent US9422280B2, “N-substituted hetero-bicyclic compounds and derivatives for combating animal pests II” (BASF SE, priority 2012, dated 2016).

How the values were obtained:
Assay type in all cases: in vivo
[1] = tested on: Rice Brown Plant Hopper (Nilaparvata lugens); assay: Rice brown plant hopper spray test on rice seedlings; conditions: sprayed rice seedlings, adults, after 72 hours, read-out: mortality in comparison with untreated controls
Protocol: B.9 Rice Brown Plant Hopper (Nilaparvata lugens)
(§1) Rice seedlings were cleaned and washed 24 hours before spraying. The active compounds were formulated in 50:50 acetone:water (vol:vol) and 0.1% vol/vol surfactant (EL 620) was added. Potted rice seedlings were sprayed with 5 ml test solution, air dried, placed in cages and inoculated with 10 adults. Treated rice plants were kept at about 28-29° C. and relative humidity of about 50-60%. Percent mortality was recorded after 72 hours.

[2] = tested on: Silverleaf Whitefly (bemisia argentifolii); assay: Silverleaf whitefly spray test on cotton plants; conditions: 72 h, sprayed cotton plants, whitefly adults, 3 days after treatment, read-out: mortality in comparison with untreated controls
Source text: B.5 Silverleaf Whitefly (bemisia argentifolii)
(§2) The active compounds were formulated in cyclohexanone as a 10,000 ppm solution supplied in tubes. The tubes were inserted into an automated electrostatic sprayer equipped with an atomizing nozzle and they served as stock solutions for which lower dilutions were made in 50% acetone:50% water (v/v). A nonionic surfactant (Kinetic®) was included in the solution at a volume of 0.01% (v/v).
Cotton plants at the cotyledon stage (one plant per pot) were sprayed by an automated electrostatic plant sprayer equipped with an atomizing spray nozzle. The plants were dried in the sprayer fume hood and then removed from the sprayer. Each pot was placed into a plastic cup and about 10 to 12 whitefly adults (approximately 3-5 days old) were introduced. The insects were collected using an aspirator and a nontoxic Tygon® tubing connected to a barrier pipette tip. The tip, containing the collected insects, was then gently inserted into the soil containing the treated plant, allowing insects to crawl out of the tip to reach the foliage for feeding. Cups were covered with a reusable screened lid. […] Mortality was assessed 3 days after treatment, compared to untreated control plants.

[3] = tested on: Cowpea Aphid (Aphis craccivora); assay: Cowpea aphid spray test on potted cowpea plants; conditions: sprayed cowpea plants, population reduction assessed after 24, 72 and 120 hours, read-out: mortality in comparison with untreated controls
Protocol: B.3 Cowpea Aphid (Aphis craccivora)
The active compound is dissolved at the desired concentration in a mixture of 1:1 (vol:vol) distilled water:acetone. The test solution is prepared at the day of use.
Potted cowpea plants colonized with approximately 100-150 aphids of various stages were sprayed after the pest population has been recorded. Population reduction was assessed after 24, 72, and 120 hours.

[4] = tested on: Vetch Aphid (Megoura viciae); assay: Vetch aphid broad bean leaf disk microtiter test; conditions: foliar, 120 h, sprayed broad bean leaf disks, 5 days, read-out: mortality in comparison with untreated controls
Protocol: B.4 Vetch Aphid (Megoura viciae)
For evaluating control of vetch aphid (Megoura viciae) through contact or systemic means the test unit consisted of 24-well-microtiter plates containing broad bean leaf disks.
The compounds were formulated using a solution containing 75% v/v water and 25% v/v DMSO. Different concentrations of formulated compounds were sprayed onto the leaf disks at 2.5 μl, using a custom built micro atomizer, at two replications.
After application, the leaf disks were air-dried and 5-8 adult aphids placed on the leaf disks inside the microtiter plate wells. The aphids were then allowed to suck on the treated leaf disks and incubated at about 23±1° C. and about 50±5% relative humidity for 5 days. Aphid mortality and fecundity was then visually assessed.

[5] = tested on: Cotton Aphid (Aphis gossypii); assay: Cotton aphid cotyledon dip test; conditions: 120 h, cotton cotyledons dipped, mortality counts after 5 days, read-out: mortality in comparison with untreated controls
Source text: B.2 Cotton Aphid (Aphis gossypii)
The active compounds were formulated in 50:50 (vol:vol) acetone:water and 100 ppm Kinetica™ surfactant.
Cotton plants at the cotyledon stage (one plant per pot) were infested by placing a heavily infested leaf from the main colony on top of each cotyledon. The aphids were allowed to transfer to the host plant overnight, and the leaf used to transfer the aphids was removed. The cotyledons were dipped in the test solution and allowed to dry. After 5 days, mortality counts were made.

[6] = tested on: Orchid Thrips (dichromothrips corbetti); assay: Orchid thrips floral-immersion test; conditions: dipped orchid flowers, adult thrips, 72 hours after treatment, read-out: mortality in comparison with untreated controls
Protocol: B.7 Orchid Thrips (dichromothrips corbetti)
Dichromothrips corbetti adults used for bioassay were obtained from a colony maintained continuously under laboratory conditions. For testing purposes, the test compound is diluted in a 1:1 mixture of acetone:water (vol:vol), plus 0.01% vol/vol Alkamuls® EL 620 surfactant.
Thrips potency of each compound was evaluated by using a floral-immersion technique. Plastic petri dishes were used as test arenas. All petals of individual, intact orchid flowers were dipped into treatment solution and allowed to dry. Treated flowers were placed into individual petri dishes along with about 20 adult thrips. The petri dishes were then covered with lids. All test arenas were held under continuous light and a temperature of about 28° C. for duration of the assay. After 3 days, the numbers of live thrips were counted on each flower, and along inner walls of each petri dish. The percentmortality was recorded 72 hours after treatment.

[7] = tested on: Rice Green Leafhopper (Nephotettix virescens); assay: Rice green leafhopper spray test on rice seedlings; conditions: sprayed rice seedlings, adults, after 72 hours, read-out: mortality in comparison with untreated controls
Protocol: B.8 Rice Green Leafhopper (Nephotettix virescens)
as §1, with “(vol:vol),” for “(vol:vol)”

[8] = tested on: Boll Weevil (Anthonomus grandis); assay: Boll weevil insect diet microtiter test; conditions: 120 h, sprayed onto insect diet with eggs, egg and larval mortality after 5 days, read-out: mortality in comparison with untreated controls
Protocol: B.6 Boll Weevil (Anthonomus grandis)
For evaluating control of boll weevil (Anthonomus grandis) the test unit consisted of 24-well-microtiter plates containing an insect diet and 20-30 A. grandis eggs.
The compounds were formulated using a solution containing 75% v/v water and 25% v/v DMSO. Different concentrations of formulated compounds were sprayed onto the insect diet at 20 μl, using a custom built micro atomizer, at two replications.
After application, microtiter plates were incubated at about 23±1° C. and about 50±5% relative humidity for 5 days. Egg and larval mortality was then visually assessed.

[9] = tested on: Green Peach Aphid (Myzus persicae); assay: Green peach aphid foliar spray test on bell pepper; conditions: 120 h, sprayed bell pepper plants, aphid mortality after 5 days, read-out: mortality in comparison with untreated controls
Source text: B.1 Green Peach Aphid (Myzus persicae)
as §2
Bell pepper plants at the first true-leaf stage were infested prior to treatment by placing heavily infested leaves from the main colony on top of the treatment plants. Aphids were allowed to transfer overnight to accomplish an infestation of 30-50 aphids per plant and the host leaves were removed. The infested plants were then sprayed by an automated electrostatic plant sprayer equipped with an atomizing spray nozzle. The plants were dried in the sprayer fume hood, removed, and then maintained in a growth room under fluorescent lighting in a 24-hr photoperiod at about 25° C. and about 20-40% relative humidity. Aphid mortality on the treated plants, relative to mortality on untreated control plants, was determined after 5 days.

Row | Structure (SMILES) | mortality at 500 ppm [1] | mortality at 500 ppm [2] | mortality at 500 ppm [3] | mortality at 800 ppm [4] | mortality at 300 ppm [5] | mortality at 500 ppm [6] | mortality at 500 ppm [7] | mortality at 2500 ppm [8] | mortality at 300 ppm [9]
1 | FC(F)(F)c1nc2cccn(Cc3ccc(Cl)nc3)c-2n1 [E1.15, 4-[(6-chloro-3-pyridyl)methyl]-2-(trifluoromethyl)imidazo[4,5-b]pyridine] | ≥ 75% | ≥ 75% | ≥ 75% | ≥ 75% | ≥ 75% | ≥ 75% | ≥ 75% |  | 
2 | Clc1ccc(Cn2cccc3nc(Cl)nc2-3)cn1 [E1.8, 2-chloro-4-[(6-chloro-3-pyridyl)methyl]imidazo[4,5-b]pyridine] | ≥ 75% | ≥ 75% | ≥ 75% | ≥ 75% | ≥ 75% | ≥ 75% | ≥ 75% | > 75% | ≥ 75%
3 | CSc1nc2cccn(Cc3ccc(Cl)nc3)c-2n1 [E1.4, 4-[(6-chloro-3-pyridyl)methyl]-2-methylsulfanyl-imidazo[4,5-b]pyridine] |  |  | ≥ 75% | ≥ 75% |  |  |  |  | 
